The text below walks through data of patent US20230150980A1, “COLLAGEN 1 TRANSLATION INHIBITORS AND METHODS OF USE THEREOF” (Anima Biotech Inc., priority 2020, published 2023).

For this experiment, the system named is collagen 1. As to the kind of experiment: WI-38 collagen 1 inhibition assay (anti-Collagen I immunofluorescence).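 Note: minus sign means inactive.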 Type of experiment: cell-based. Conditions: cellular EC50, WI-38 human lung fibroblasts, values are LogEC50 classes.
Take `Cc1ncnc(N2CCN(Cc3nc4ccc(Cl)cc4o3)CC2)c1C` [compound 302, 6-chloro-2-((4-(5,6-dimethylpyrimidin-4-yl)piperazin-1-yl)methyl)benzo[d]oxazole]: the “COL1 Efficacy (LogEC50)” value is “+++ (+++: <−6)”. Then `Cc1ncnc(N2CCN(Cc3nc4ccc(C(F)(F)F)cc4o3)CC2)c1C` [compound 303, 2-((4-(5,6-dimethylpyrimidin-4-yl)piperazin-1-yl)methyl)-6-(trifluoromethyl)benzo[d]oxazole], with “+++ (+++: <−6)”; and `Cc1ncnc(N2CCN(Cc3nc4ccc(C(F)F)cc4o3)CC2)c1C` [compound 304, 6-(difluoromethyl)-2-((4-(5,6-dimethylpyrimidin-4-yl)piperazin-1-yl)methyl)benzo[d]oxazole], with “+++ (+++: <−6)”; and `Cc1ncnc(N2CCN(Cc3nc4cccc(F)c4o3)CC2)c1C` [compound 305, 2-((4-(5,6-dimethylpyrimidin-4-yl)piperazin-1-yl)methyl)-7-fluorobenzo[d]oxazole], with “++ (++: −5 to −6)”. Then `Cc1ncnc(N2CCN(Cc3nc4cccc(C(F)(F)F)c4o3)CC2)c1C` [compound 307, 2-((4-(5,6-dimethylpyrimidin-4-yl)piperazin-1-yl)methyl)-7-(trifluoromethyl)benzo[d]oxazole], with “++ (++: −5 to −6)”; and `Cc1ncnc(N2CCN(Cc3nc4ccccc4o3)CC2)c1F` [compound 309, 2-((4-(5-fluoro-6-methylpyrimidin-4-yl)piperazin-1-yl)methyl)benzo[d]oxazole], with “++ (++: −5 to −6)”. `Cc1ncnc(N2CCN(Cc3nc4ccccc4o3)CC2)c1Cl` [compound 310, 2-((4-(5-chloro-6-methylpyrimidin-4-yl)piperazin-1-yl)methyl)benzo[d]oxazole]: the “COL1 Efficacy (LogEC50)” value is “++ (++: −5 to −6)”. With `Cc1ncnc(N2CCN(Cc3nc4ccccc4o3)CC2)c1C(F)(F)F` [compound 311, 2-((4-(6-methyl-5-(trifluoromethyl)pyrimidin-4-yl)piperazin-1-yl)methyl)benzo[d]oxazole], the “COL1 Efficacy (LogEC50)” value is “+ (+: >−5)”. On to `Fc1cncnc1N1CCN(Cc2nc3ccccc3o2)CC1` [compound 313], for which the “COL1 Efficacy (LogEC50)” value is “+ (+: >−5)”. As to `Clc1cncnc1N1CCN(Cc2nc3ccccc3o2)CC1` [compound 314, 2-((4-(5-chloropyrimidin-4-yl)piperazin-1-yl)methyl)benzo[d]oxazole], the “COL1 Efficacy (LogEC50)” value is given as “++ (++: −5 to −6)”.

Regarding `FC(F)(F)c1cncnc1N1CCN(Cc2nc3ccccc3o2)CC1` [compound 315, 2-((4-(5-(trifluoromethyl)pyrimidin-4-yl)piperazin-1-yl)methyl)benzo[d]oxazole], the “COL1 Efficacy (LogEC50)” value is listed as “+ (+: >−5)”. `Cc1ncnc(N2CCN(C3(c4nc5ccccc5o4)CC3)CC2)c1C` [compound 321, 2-(1-(4-(5,6-dimethylpyrimidin-4-yl)piperazin-1-yl)cyclopropyl)benzo[d]oxazole]: the “COL1 Efficacy (LogEC50)” value is “++ (++: −5 to −6)”. The same measure for `Cn1cc(N2CCN(Cc3nc4ccccc4o3)CC2)nn1` [compound 322]: “+ (+: >−5)”. Then `Cn1cc(N2CCN(Cc3nc4ccc(F)cc4o3)CC2)nn1` [compound 323], with “−”. Take `Cn1ccc(N2CCN(Cc3nc4ccccc4o3)CC2)n1` [compound 324, 2-((4-(1-methyl-1H-pyrazol-3-yl)piperazin-1-yl)methyl)benzo[d]oxazole]: the “COL1 Efficacy (LogEC50)” value is listed as “+ (+: >−5)”. The same measure for `Cn1nccc1N1CCN(Cc2nc3ccccc3o2)CC1` [compound 325]: “−”; for `Cn1cnc(N2CCN(Cc3nc4ccccc4o3)CC2)n1` [compound 326, 2-((4-(1-methyl-1H-1,2,4-triazol-3-yl)piperazin-1-yl)methyl)benzo[d]oxazole]: “+ (+: >−5)”.
